Source: patent publication USRE47141E1, “Methods of treating fibrosis, cancer and vascular injuries” (EWHA University—Industry Collaboration Foundation, priority 2010, dated 2018)

Each molecule was assayed against ALK5 (Homo sapiens (Human), UniProt P36897) (assay: Cell-free assay for inhibition of ALK5 kinase phosphorylation). Settings: not given.
Sequence of ALK5 (P36897 34-503): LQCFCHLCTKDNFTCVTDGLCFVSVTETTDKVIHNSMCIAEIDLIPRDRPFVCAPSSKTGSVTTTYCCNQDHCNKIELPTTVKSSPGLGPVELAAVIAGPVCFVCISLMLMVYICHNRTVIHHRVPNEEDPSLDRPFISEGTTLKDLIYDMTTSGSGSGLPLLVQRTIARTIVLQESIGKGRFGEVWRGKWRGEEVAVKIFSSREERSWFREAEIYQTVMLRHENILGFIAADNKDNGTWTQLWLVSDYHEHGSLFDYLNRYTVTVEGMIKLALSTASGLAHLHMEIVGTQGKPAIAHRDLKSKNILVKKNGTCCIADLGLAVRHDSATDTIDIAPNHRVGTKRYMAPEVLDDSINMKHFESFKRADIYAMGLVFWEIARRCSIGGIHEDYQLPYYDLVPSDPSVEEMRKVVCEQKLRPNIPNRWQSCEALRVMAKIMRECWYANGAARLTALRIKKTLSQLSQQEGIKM
Format: biochemical
For `Cc1cccc(-c2[nH]c(CNc3ccccc3C#N)nc2-c2ccc3ncnn3c2)n1` [Example 59, 2-((4-([1,2,4]triazolo[1,5-a]pyridin-6-yl)-5-(6-methylpyridin-2-yl)-1H-imidazol-2-yl)methylamino)benzonitrile], the IC50 was 19.5 nM.

Same assay, conditions: read-out: IC50 on ALK5 kinase phosphorylation
`COCc1ccccc1NCc1nc(-c2ccc3ncnn3c2)c(-c2cccc(C)n2)[nH]1` [Example 48, N-((4-([1,2,4]triazolo[1,5-a]pyridin-6-yl)-5-(6-methylpyridin-2-yl)-1H-imidazol-2-yl)methyl)-2-(methoxymethyl)aniline] showed an IC50 of 24.1 nM. `COCc1cccc(NCc2nc(-c3ccc4ncnn4c3)c(-c3cccc(C)n3)[nH]2)c1` [Example 49, N-((4-([1,2,4]triazolo[1,5-a]pyridin-6-yl)-5-(6-methylpyridin-2-yl)-1H-imidazol-2-yl)methyl)-3-(methoxymethyl)aniline] gave an IC50 of 15.3 nM. For `COCc1ccc(NCc2nc(-c3ccc4ncnn4c3)c(-c3cccc(C)n3)[nH]2)cc1` [Example 50, N-((4-([1,2,4]triazolo[1,5-a]pyridin-6-yl)-5-(6-methylpyridin-2-yl)-1H-imidazol-2-yl)methyl)-4-(methoxymethyl)aniline], the IC50 was 50.7 nM. With `Cc1cccc(-c2[nH]c(CNc3ccccc3OC(F)(F)F)nc2-c2ccc3ncnn3c2)n1` [Example 51, N-((4-([1,2,4]triazolo[1,5-a]pyridin-6-yl)-5-(6-methylpyridin-2-yl)-1H-imidazol-2-yl)methyl)-2-(trifluoromethoxy)aniline] the IC50 was 12.3 nM. `Cc1cccc(-c2[nH]c(CNc3cccc(OC(F)(F)F)c3)nc2-c2ccc3ncnn3c2)n1` [Example 52, N-((4-([1,2,4]triazolo[1,5-a]pyridin-6-yl)-5-(6-methylpyridin-2-yl)-1H-imidazol-2-yl)methyl)-3-(trifluoromethoxy)aniline] gave an IC50 of 23.4 nM. With `Cc1cccc(-c2[nH]c(CNc3ccc(OC(F)(F)F)cc3)nc2-c2ccc3ncnn3c2)n1` [Example 53, N-((4-([1,2,4]triazolo[1,5-a]pyridin-6-yl)-5-(6-methylpyridin-2-yl)-1H-imidazol-2-yl)methyl)-4-(trifluoromethoxy)aniline] the IC50 was 60.1 nM. Work on `CSc1ccccc1NCc1nc(-c2ccc3ncnn3c2)c(-c2cccc(C)n2)[nH]1` [Example 54, N-((4-([1,2,4]triazolo[1,5-a]pyridin-6-yl)-5-(6-methylpyridin-2-yl)-1H-imidazol-2-yl)methyl)-2-(methylthio)aniline] yielded an IC50 of 9.93 nM. `CSc1cccc(NCc2nc(-c3ccc4ncnn4c3)c(-c3cccc(C)n3)[nH]2)c1` [Example 55, N-((4-([1,2,4]triazolo[1,5-a]pyridin-6-yl)-5-(6-methylpyridin-2-yl)-1H-imidazol-2-yl)methyl)-3-(methylthio)aniline] was tested, and the IC50 was 6.7 nM. Molecule `CSc1ccc(NCc2nc(-c3ccc4ncnn4c3)c(-c3cccc(C)n3)[nH]2)cc1` [Example 58, N-((4-([1,2,4]triazolo[1,5-a]pyridin-6-yl)-5-(6-methylpyridin-2-yl)-1H-imidazol-2-yl)methyl)-4-(methylthio)aniline] has an IC50 of 39.6 nM. Work on `Cc1cccc(-c2[nH]c(CNc3cccc(C#N)c3)nc2-c2ccc3ncnn3c2)n1` [Example 60, 3-((4-([1,2,4]triazolo[1,5-a]pyridin-6-yl)-5-(6-methylpyridin-2-yl)-1H-imidazol-2-yl)methylamino)benzonitrile] yielded an IC50 of 4.83 nM. With `Cc1cccc(-c2[nH]c(CNc3ccc(C#N)cc3)nc2-c2ccc3ncnn3c2)n1` [Example 63, 4-((4-([1,2,4]triazolo[1,5-a]pyridin-6-yl)-5-(6-methylpyridin-2-yl)-1H-imidazol-2-yl)methylamino)benzonitrile] the IC50 was 32.1 nM. `Cc1cccc(-c2[nH]c(CNc3cccc(C#N)c3C#N)nc2-c2ccc3ncnn3c2)n1` [Example 64, 3-((4-([1,2,4]triazolo[1,5-a]pyridin-6-yl)-5-(6-methylpyridin-2-yl)-1H-imidazol-2-yl)methylamino)phthalonitrile] was tested, and the IC50 was 20.6 nM. Molecule `Cc1cccc(-c2[nH]c(CNc3ccccc3C(N)=O)nc2-c2ccc3ncnn3c2)n1` [Example 65, 2-((4-([1,2,4]triazolo[1,5-a]pyridin-6-yl)-5-(6-methylpyridin-2-yl)-1H-imidazol-2-yl)methylamino)benzamide] has an IC50 of 29.7 nM. With `Cc1cccc(-c2[nH]c(CNc3cccc(C(N)=O)c3)nc2-c2ccc3ncnn3c2)n1` [Example 66, 3-((4-([1,2,4]triazolo[1,5-a]pyridin-6-yl)-5-(6-methylpyridin-2-yl)-1H-imidazol-2-yl)methylamino)benzamide] the IC50 was 9.14 nM. With `Cc1cccc(-c2[nH]c(CNc3ccc(C(N)=O)cc3)nc2-c2ccc3ncnn3c2)n1` [Example 67, 4-((4-([1,2,4]triazolo[1,5-a]pyridin-6-yl)-5-(6-methylpyridin-2-yl)-1H-imidazol-2-yl)methylamino)benzamide] the IC50 was 54.6 nM. In the case of `Cc1cccc(-c2[nH]c(CNc3cccc(CC#N)c3)nc2-c2ccc3ncnn3c2)n1` [Example 68, 2-(3-((4-([1,2,4]triazolo[1,5-a]pyridin-6-yl)-5-(6-methylpyridin-2-yl)-1H-imidazol-2-yl)methylamino)phenyl)acetonitrile], the IC50 is reported as 11 nM. Molecule `Cc1cccc(-c2[nH]c(CNc3ccc(CC#N)cc3)nc2-c2ccc3ncnn3c2)n1` [Example 69, 2-(4-((4-([1,2,4]triazolo[1,5-a]pyridin-6-yl)-5-(6-methylpyridin-2-yl)-1H-imidazol-2-yl)methylamino)phenyl)acetonitrile] has an IC50 of 24.5 nM. Molecule `CC(=O)c1cccc(NCc2nc(-c3ccc4ncnn4c3)c(-c3cccc(C)n3)[nH]2)c1` [Example 70, 1-(3-((4-([1,2,4]triazolo[1,5-a]pyridin-6-yl)-5-(6-methylpyridin-2-yl)-1H-imidazol-2-yl)methylamino)phenyl)ethanone] has an IC50 of 12.8 nM. `CC(=O)c1ccc(NCc2nc(-c3ccc4ncnn4c3)c(-c3cccc(C)n3)[nH]2)cc1` [Example 71, 1-(4-((4-([1,2,4]triazolo[1,5-a]pyridin-6-yl)-5-(6-methylpyridin-2-yl)-1H-imidazol-2-yl)methylamino)phenyl)ethanone] showed an IC50 of 59.1 nM. Work on `COC(=O)c1cccc(NCc2nc(-c3ccc4ncnn4c3)c(-c3cccc(C)n3)[nH]2)c1` [Example 72, Methyl 3-((4-([1,2,4]triazolo[1,5-a]pyridin-6-yl)-5-(6-methylpyridin-2-yl)-1H-imidazol-2-yl)methylamino)benzoate] yielded an IC50 of 16.6 nM. Molecule `COC(=O)c1ccc(NCc2nc(-c3ccc4ncnn4c3)c(-c3cccc(C)n3)[nH]2)cc1` [Example 73, Methyl 4-((4-([1,2,4]triazolo[1,5-a]pyridin-6-yl)-5-(6-methylpyridin-2-yl)-1H-imidazol-2-yl)methylamino)benzoate] has an IC50 of 78 nM. With `CC(=O)Nc1ccccc1NCc1nc(-c2ccc3ncnn3c2)c(-c2cccc(C)n2)[nH]1` [Example 74, N-(2-((4-([1,2,4]triazolo[1,5-a]pyridin-6-yl)-5-(6-methylpyridin-2-yl)-1H-imidazol-2-yl)methylamino)phenyl)acetamide] the IC50 was 39.5 nM. `CC(=O)Nc1cccc(NCc2nc(-c3ccc4ncnn4c3)c(-c3cccc(C)n3)[nH]2)c1` [Example 75, N-(3-((4-([1,2,4]triazolo[1,5-a]pyridin-6-yl)-5-(6-methylpyridin-2-yl)-1H-imidazol-2-yl)methylamino)phenyl)acetamide] showed an IC50 of 15.4 nM. `CC(=O)Nc1ccc(NCc2nc(-c3ccc4ncnn4c3)c(-c3cccc(C)n3)[nH]2)cc1` [Example 76, N-(4-((4-([1,2,4]triazolo[1,5-a]pyridin-6-yl)-5-(6-methylpyridin-2-yl)-1H-imidazol-2-yl)methylamino)phenyl)acetamide] was tested, and the IC50 was 39 nM. `Cc1cccc(-c2[nH]c(CNc3ccccc3NS(C)(=O)=O)nc2-c2ccc3ncnn3c2)n1` [Example 77, N-(2-((4-([1,2,4]triazolo[1,5-a]pyridin-6-yl)-5-(6-methylpyridin-2-yl)-1H-imidazol-2-yl)methylamino)phenyl)methanesulfonamide] was tested, and the IC50 was 15.3 nM. For `Cc1cccc(-c2[nH]c(CNc3cccc(NS(C)(=O)=O)c3)nc2-c2ccc3ncnn3c2)n1` [Example 78, N-(3-((4-([1,2,4]triazolo[1,5-a]pyridin-6-yl)-5-(6-methylpyridin-2-yl)-1H-imidazol-2-yl)methylamino)phenyl)methanesulfonamide], the IC50 was 15.1 nM. `Cc1cccc(-c2[nH]c(CNc3ccc(NS(C)(=O)=O)cc3)nc2-c2ccc3ncnn3c2)n1` [Example 79, N-(4-((4-([1,2,4]triazolo[1,5-c]pyridin-6-yl)-5-(6-methylpyridin-2-yl)-1H-imidazol-2-yl)methylamino)phenyl)methanesulfonamide] showed an IC50 of 46.6 nM. In the case of `CCc1cccc(-c2[nH]c(CNc3cccc(C#N)c3)nc2-c2ccc3ncnn3c2)n1` [Example 138, 3-((4-([1,2,4]triazolo[1,5-a]pyridin-6-yl)-5-(6-ethylpyridin-2-yl)-1H-imidazol-2-yl)methylamino)benzonitrile], the IC50 is reported as 9.4 nM. `CCc1cccc(-c2[nH]c(CNc3ccccc3F)nc2-c2ccc3ncnn3c2)n1` [Example 139, N-((4-([1,2,4]triazolo[1,5-a]pyridin-6-yl)-5-(6-ethylpyridin-2-yl)-1H-imidazol-2-yl)methyl)-2-fluoroaniline] was tested, and the IC50 was 23.2 nM. In the case of `Cc1cccc(-c2[nH]c(CN(C)c3ccccc3F)nc2-c2ccc3ncnn3c2)n1` [Example 140, N-((4-([1,2,4]triazolo[1,5-a]pyridin-6-yl)-5-(6-methylpyridin-2-yl)-1H-imidazol-2-yl)methyl)-2-fluoro-N-methylaniline], the IC50 is reported as 49.8 nM. With `Cc1cccc(-c2[nH]c(CN(C)c3cccc(C#N)c3)nc2-c2ccc3ncnn3c2)n1` [Example 141] the IC50 was 118 nM. In the case of `Cc1cccc(-c2[nH]c(CN(C)c3cccc(C(N)=O)c3)nc2-c2ccc3ncnn3c2)n1` [Example 142], the IC50 is reported as 153 nM. `Cc1cccc(-c2[nH]c(Cc3ccccc3)nc2-c2ccc3ncnn3c2)n1` [Example 143, 6-(2-benzyl-5-(6-methylpyridin-2-yl)-1H-imidazol-4-yl)-[1,2,4]triazolo[1,5-a]pyridine] gave an IC50 of 19.8 nM. `Cc1cccc(-c2[nH]c(Cc3ccccc3F)nc2-c2ccc3ncnn3c2)n1` [Example 144, 6-(2-(2-fluorobenzyl)-5-(6-methylpyridin-2-yl)-1H-imidazol-4-yl)-[1,2,4]triazolo[1,5-a]pyridine] gave an IC50 of 25.1 nM.
